According to ChEMBL document CHEMBL1148853, “Studies on acyl pyrrolidine inhibitors of HCV RNA-dependent RNA polymerase to identify a molecule with replicon antiviral activity” (Bioorg Med Chem Lett, 2007):

Tests used:
[1] = Inhibition of HCV NS5B J4 delta 21 polymerase; set-up: species or system Hepacivirus hominis
[2] = test system: Hepatitis C virus; assay: Inhibition of HCV replicon by cell based assay; type: functional, organism-based, Hepacivirus hominis
[3] = Inhibition of HCV NS5B RB01 polymerase; set-up: species or system Hepacivirus hominis
[4] = test system: Hepacivirus hominis; assay: Inhibition of HCV NS5B J4 delta 21 polymerase at 10 uM
[5] = Permeability across artificial membrane by PAMPA assay; type: ADME; conditions: read-out: permeability

SMILES | IC50 [1] [µM] | IC50 [3] [µM] | further results
CC(C)C[C@@]1(C(=O)O)C[C@H](C(=O)Nc2ccccc2)[C@H](c2nccs2)N1C(=O)c1ccc(C(C)(C)C)cc1 (stereo in doubt; 41) | 0.16 | 3.1 | IC50 ([2]; Hepatitis C virus): 45 µM
CC(C)C[C@@]1(C(=O)O)C[C@H](C(=O)NS(=O)(=O)Cc2ccccc2)[C@H](c2nccs2)N1C(=O)c1ccc(C(C)(C)C)cc1 | 0.55 | 4.23 | 
CC(C)C[C@@]1(C(=O)O)C[C@H](C(=O)O)[C@H](c2nccs2)N1C(=O)c1ccc(C(C)(C)C)cc1 (stereo in doubt; (+)28) | 0.03 | 2.1 | 
CC(C)C[C@@]1(C(=O)O)C[C@H](C(=O)NS(=O)(=O)c2ccccc2)[C@H](c2nccs2)N1C(=O)c1ccc(C(C)(C)C)cc1 | 0.5 | 3.15 | 
CC(C)C[C@@]1(C(=O)O)C[C@H](C(=O)NCc2ccccc2)[C@H](c2nccs2)N1C(=O)c1ccc(C(C)(C)C)cc1 | 8.29 | 68 | 
CC(C)C[C@@]1(C(=O)O)C[C@H](CO)[C@H](c2cccs2)N1C(=O)c1ccc(C(F)(F)F)cc1 |  |  | inhibition [4]: 51%
CC(C)C[C@@]1(C(=O)O)C[C@H](C(N)=O)[C@H](c2nccs2)N1C(=O)c1ccc(C(F)(F)F)cc1 | 2.05 |  | 
CC(C)C[C@@]1(C(=O)O)C[C@H](C(N)=O)[C@H](c2nccs2)N1C(=O)c1ccc(C(C)(C)C)cc1 (stereo in doubt; (-)32) | 2.5 |  | 
CC(C)C[C@@]1(C(=O)O)C[C@H](C(N)=O)[C@H](c2nccs2)N1C(=O)c1ccc(C(C)(C)C)cc1 (stereo in doubt; (+)32) | 0.07 | 3.8 | 
CNC(=O)[C@H]1C[C@@](CC(C)C)(C(=O)O)N(C(=O)c2ccc(C(C)(C)C)cc2)[C@H]1c1nccs1 |  | 22 | 
CC(C)C[C@@]1(C(=O)O)C[C@H](C(=O)Nc2ccccc2)[C@H](c2nccs2)N1C(=O)c1ccc(C(C)(C)C)cc1 (stereo in doubt; (+)41) |  | 0.5 | IC50 [2]: 30 µM
CC(C)C[C@@]1(C(=O)O)C[C@H](C(=O)O)[C@H](c2nccs2)N1C(=O)c1ccc(C(C)(C)C)cc1 (stereo in doubt; 28) | 0.07 | 3.8 | 
CC(C)C[C@@]1(CO)C[C@H](C(=O)O)[C@H](c2cccs2)N1C(=O)c1ccc(C(F)(F)F)cc1 |  |  | inhibition [4]: 0%
CC(C)C[C@@]1(C(=O)O)C[C@H](C(N)=O)[C@H](c2nccs2)N1C(=O)c1ccc(C(C)(C)C)cc1 (stereo in doubt; 32) | 0.08 | 4.4 | 
CC(C)C[C@@]1(C(=O)O)C[C@H](C(=O)Nc2ccccc2)[C@H](c2nccs2)N1C(=O)c1ccc(C(C)(C)C)cc1 (stereo in doubt; (-)41) |  | > 100 | CC50 ([2]; Hepatitis C virus): > 200 µM
CC(C)C[C@@]1(C(=O)O)C[C@H](C(=O)NS(C)(=O)=O)[C@H](c2nccs2)N1C(=O)c1ccc(C(C)(C)C)cc1 | 0.04 |  | Papp [5]: < 0.03 ×10⁻⁶ cm/s
CC(C)C[C@@]1(C(=O)O)C[C@H](C(=O)O)[C@H](c2nccs2)N1C(=O)c1ccc(C(C)(C)C)cc1 (stereo in doubt; (-)28) | 2.36 |  | 
CC(C)C[C@@]1(C(=O)O)C[C@H](C(=O)NS(C)(=O)=O)[C@H](c2nccs2)N1C(=O)c1ccc(C(F)(F)F)cc1 | 0.41 |  | 

Second part, led by results:

IC50 [1] [µM] | IC50 [3] [µM] | SMILES | further results
> 20 |  | CC(C)C[C@@]1(C(=O)NCc2ccccc2)C[C@H](C(=O)O)[C@H](c2cccs2)N1C(=O)c1ccc(C(F)(F)F)cc1 | 
> 20 |  | CC(C)C[C@@]1(C(=O)OCc2ccccc2)C[C@H](C(=O)O)[C@H](c2cccs2)N1C(=O)c1ccc(C(F)(F)F)cc1 | 
8.1 |  | CC(C)C[C@@]1(C(N)=O)C[C@H](C(=O)O)[C@H](c2cccs2)N1C(=O)c1ccc(C(F)(F)F)cc1 | 
> 20 |  | COC(=O)[C@]1(CC(C)C)C[C@H](C(=O)O)[C@H](c2cccs2)N1C(=O)c1ccc(C(F)(F)F)cc1 | 
18 |  | CC(C)C[C@@]1(C(=O)O)C[C@H](C(=O)O)[C@H](c2cccs2)N1C(=O)c1ccc(C(F)(F)F)cc1 (stereo in doubt; (-)1) | 
0.33 |  | CC(C)C[C@@]1(C(=O)O)C[C@H](C(N)=O)[C@H](c2cccs2)N1C(=O)c1ccc(C(C)(C)C)cc1 | 
0.3 | 11.9 | CC(C)C[C@@]1(C(=O)O)C[C@H](C(=O)O)[C@H](c2cccs2)N1C(=O)c1ccc(C(F)(F)F)cc1 (stereo in doubt; (+)-1) | 
> 30 |  | CC(C)C[C@@]1(C(=O)O)C[C@H](C(N)=O)[C@H](c2cccs2)N1C(=O)c1ccc(C(F)(F)F)cc1 (stereo in doubt; (-)29) | 
> 20 |  | COC(=O)[C@H]1C[C@@](CC(C)C)(C(=O)O)N(C(=O)c2ccc(C(F)(F)F)cc2)[C@H]1c1cccs1 | 
> 20 |  | CC(C)C[C@@]1(C(=O)Nc2ccccc2)C[C@H](C(=O)O)[C@H](c2cccs2)N1C(=O)c1ccc(C(F)(F)F)cc1 | 
 | 20 | CC(C)C[C@@]1(C(=O)O)C[C@H](C(=O)O)[C@H](c2cccs2)N1C(=O)c1ccc(C(F)(F)F)cc1 (stereo in doubt; 1) | 
> 20 |  | CC(C)C[C@@]1(C(=O)NC(C)C)C[C@H](C(=O)O)[C@H](c2cccs2)N1C(=O)c1ccc(C(F)(F)F)cc1 | 
0.75 |  | CC(C)C[C@@]1(C(=O)O)C[C@H](C(=O)O)[C@H](c2cccs2)N1C(=O)c1ccc(C(C)(C)C)cc1 | 
0.45 |  | CC(C)C[C@@]1(C(=O)O)C[C@H](C(=O)O)[C@H](c2nccs2)N1C(=O)c1ccc(C(F)(F)F)cc1 | 
> 20 |  | COC(=O)[C@H]1C[C@@](CC(C)C)(C(=O)OC)N(C(=O)c2ccc(C(F)(F)F)cc2)[C@H]1c1cccs1 | 
0.2 |  | CC(C)C[C@@]1(C(=O)O)C[C@H](C(=O)NS(=O)(=O)C(F)(F)F)[C@H](c2cccs2)N1C(=O)c1ccc(C(F)(F)F)cc1 | 
> 20 |  | CCNC(=O)[C@]1(CC(C)C)C[C@H](C(=O)O)[C@H](c2cccs2)N1C(=O)c1ccc(C(F)(F)F)cc1 | 
4.4 |  | CC(C)C[C@@]1(C(=O)O)C[C@H](C(N)=O)[C@H](c2cccs2)N1C(=O)c1ccc(C(F)(F)F)cc1 (stereo in doubt; 19) | 
0.23 |  | CC(C)C[C@@]1(C(=O)O)C[C@H](C(=O)NS(C)(=O)=O)[C@H](c2cccs2)N1C(=O)c1ccc(C(F)(F)F)cc1 | 
2.23 |  | CC(C)C[C@@]1(C(=O)O)C[C@H](C(N)=O)[C@H](c2cccs2)N1C(=O)c1ccc(C(F)(F)F)cc1 (stereo in doubt; (+)29) | 
> 20 |  | CNC(=O)[C@]1(CC(C)C)C[C@H](C(=O)O)[C@H](c2cccs2)N1C(=O)c1ccc(C(F)(F)F)cc1 | 
